Measured values from ChEMBL document CHEMBL1201862, “PubChem BioAssay data set” (2004).
Active and inactive are the calls of the source.

Tests used:
[1] = reduction of Shn3 3'UTR-driven luciferase in osteoblasts – cell-based, Clone20 osteoblasts, firefly luciferase, cherry-picked, dose response (AID 624132); format: functional;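 note: firefly luciferase luminescence from reporter carrying the Shn3 3'UTR in osteoblasts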
[2] = non-specific 3'UTR reporter inhibition in Clone20-Shn3RL – cell-based, Renilla luciferase, cherry-picked, counter-screen for Shn3 inhibitor project, dose response (AID 624133); format: functional
cells [3] = format: functional, cell-based
cells [4] = format: functional, cell-based; remark: listed apart in the source
[5] = target: Luciferin 4-monooxygenase (Photinus pyralis, UniProt P08659); experiment: inhibition of purified Photinus pyralis luciferase – biochemical, luminescence, dose response (AID 1891)
[6] = Luminescence Cell-Based Dose Confirmation HTS to Identify Inhibitors of Platelet Dense Granule Release. [Related pubchem assays: 1663 (Primary HTS), 1678 (Summary of Project)]; format: functional
HEK293 = experiment: EBV LMP1 TES2 canonical NF-kB signalling blockers – cell-based, HEK293, luciferase, cherry-pick, dose response (AID 588343); format: functional; details: Homo sapiens
[7] = target: T1, Polyadenylate-binding protein 1 (Homo sapiens, UniProt P11940); experiment: MLLE binding blockers, Cy5 peptide tracer – biochemical, fluorescence polarization, Cy5-PAM2 peptide, secondary, miRNA deadenylation inhibitor project, dose response (AID 602260); format: functional; details: read-out: IC50_Mean
[8] = target: T1, Polyadenylate-binding protein 1; experiment: MLLE domain peptide-binding blockers, IC50 – biochemical, fluorescence polarization, FITC-PAM2 peptide, dose response (AID 602259); format: functional; details: read-out: IC50_Mean
[9] = target: T2, RNA-binding protein pos-1 (Caenorhabditis elegans, UniProt G5EF15); experiment: disruptors of C. elegans POS-1 RNA interaction – biochemical, fluorescence polarization, dose response (AID 1964);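 note: purified POS-1 fused to maltose binding protein made in E. coli; potency of compounds blocking POS-1 binding to fluorescent RNA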
T2 sequence (G5EF15 whole entry): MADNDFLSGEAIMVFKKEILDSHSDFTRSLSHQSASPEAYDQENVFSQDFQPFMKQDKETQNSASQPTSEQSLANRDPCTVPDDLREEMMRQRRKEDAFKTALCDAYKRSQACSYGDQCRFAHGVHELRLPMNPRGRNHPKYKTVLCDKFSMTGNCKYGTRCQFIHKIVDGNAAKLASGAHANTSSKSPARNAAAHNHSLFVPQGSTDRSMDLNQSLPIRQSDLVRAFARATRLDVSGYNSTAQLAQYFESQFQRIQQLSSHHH

[10] = target: T3, Zinc finger protein mex-5 (Caenorhabditis elegans, UniProt Q9XUB2); experiment: potency of MEX-5 RNA-binding blockers – biochemical, C. elegans, fluorescence polarization, dose response (AID 1960)
T3 sequence (Q9XUB2 whole entry): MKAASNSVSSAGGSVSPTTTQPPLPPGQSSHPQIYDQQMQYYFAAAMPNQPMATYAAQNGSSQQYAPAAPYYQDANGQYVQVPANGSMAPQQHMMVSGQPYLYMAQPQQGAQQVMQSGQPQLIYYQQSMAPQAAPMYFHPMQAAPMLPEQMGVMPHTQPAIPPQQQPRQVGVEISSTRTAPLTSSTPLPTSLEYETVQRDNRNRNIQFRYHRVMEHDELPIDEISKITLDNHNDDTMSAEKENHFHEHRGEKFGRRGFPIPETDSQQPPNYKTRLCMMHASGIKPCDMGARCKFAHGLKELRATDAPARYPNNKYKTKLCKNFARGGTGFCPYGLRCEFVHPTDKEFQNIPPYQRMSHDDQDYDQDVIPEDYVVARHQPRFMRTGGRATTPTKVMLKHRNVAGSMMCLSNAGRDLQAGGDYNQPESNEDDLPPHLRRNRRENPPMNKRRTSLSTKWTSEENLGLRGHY

Coagulation factor XII = target: T4, Coagulation factor XII (Homo sapiens, UniProt P00748); format: functional;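 note: activated factor XIIa alpha cleaving a fluorogenic AMC peptide substrate; inhibitor potency from loss of enzyme activity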
T4 sequence (P00748 whole entry): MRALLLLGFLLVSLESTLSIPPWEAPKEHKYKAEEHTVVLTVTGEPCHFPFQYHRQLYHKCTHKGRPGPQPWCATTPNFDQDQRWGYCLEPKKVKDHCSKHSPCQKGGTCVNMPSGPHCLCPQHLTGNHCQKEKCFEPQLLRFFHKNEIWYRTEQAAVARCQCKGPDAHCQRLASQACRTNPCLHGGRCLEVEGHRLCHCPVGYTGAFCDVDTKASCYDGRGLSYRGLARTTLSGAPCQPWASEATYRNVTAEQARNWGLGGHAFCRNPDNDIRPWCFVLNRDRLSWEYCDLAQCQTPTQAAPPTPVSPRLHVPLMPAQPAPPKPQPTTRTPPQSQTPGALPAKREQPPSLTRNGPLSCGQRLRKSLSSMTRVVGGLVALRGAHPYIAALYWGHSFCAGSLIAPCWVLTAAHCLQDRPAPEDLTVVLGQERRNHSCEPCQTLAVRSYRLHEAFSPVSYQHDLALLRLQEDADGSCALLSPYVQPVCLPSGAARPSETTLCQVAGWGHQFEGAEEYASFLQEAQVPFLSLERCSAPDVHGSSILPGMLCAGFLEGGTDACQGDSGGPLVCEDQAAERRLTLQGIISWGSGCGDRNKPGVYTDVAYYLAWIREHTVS

Large T antigen = Large T antigen (Simian virus 40, UniProt P03070); format: functional, Betapolyomavirus macacae;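 note: Confirmatory-stage PubChem screen for compounds that inhibit SV40 T antigen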
[11] = target: T5, Rac GTPase-activating protein 1 (Homo sapiens, UniProt Q9H0H5); experiment: blockers of MgcRacGAP-driven Rac1 GTP hydrolysis – biochemical, ADP Hunter fluorescence, primary and confirmatory, confirmation (AID 624330); format: functional
T5 sequence (Q9H0H5 whole entry): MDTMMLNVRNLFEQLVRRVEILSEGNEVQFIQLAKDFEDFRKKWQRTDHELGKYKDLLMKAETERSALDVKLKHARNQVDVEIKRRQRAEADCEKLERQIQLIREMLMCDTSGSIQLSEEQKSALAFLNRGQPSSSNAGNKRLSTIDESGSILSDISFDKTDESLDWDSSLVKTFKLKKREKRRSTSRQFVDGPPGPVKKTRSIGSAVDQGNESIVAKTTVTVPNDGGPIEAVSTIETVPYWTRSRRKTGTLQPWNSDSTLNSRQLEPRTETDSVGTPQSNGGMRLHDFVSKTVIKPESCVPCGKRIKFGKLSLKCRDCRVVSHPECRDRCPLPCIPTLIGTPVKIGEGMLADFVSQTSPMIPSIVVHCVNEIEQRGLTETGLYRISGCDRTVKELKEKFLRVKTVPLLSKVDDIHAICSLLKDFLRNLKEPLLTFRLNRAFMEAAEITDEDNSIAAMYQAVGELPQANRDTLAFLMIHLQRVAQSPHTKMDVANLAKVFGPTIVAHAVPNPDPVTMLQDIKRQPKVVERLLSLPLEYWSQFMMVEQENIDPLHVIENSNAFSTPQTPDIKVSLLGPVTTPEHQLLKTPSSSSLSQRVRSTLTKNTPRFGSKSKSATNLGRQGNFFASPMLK

[12] = target: T6, Ubiquitin-conjugating enzyme E2 N (Homo sapiens, UniProt P61088); format: functional;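 note: Dose-response confirmation in a TR-FRET assay detecting UBC13-driven polyubiquitin chain formation, inhibition measured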
T6 sequence (P61088 whole entry): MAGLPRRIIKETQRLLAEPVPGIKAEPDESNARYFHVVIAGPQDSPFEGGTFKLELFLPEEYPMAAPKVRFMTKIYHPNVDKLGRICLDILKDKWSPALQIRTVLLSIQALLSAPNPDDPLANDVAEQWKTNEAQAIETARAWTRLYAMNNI

T1 sequence (P11940 whole entry, the tested form may be a part): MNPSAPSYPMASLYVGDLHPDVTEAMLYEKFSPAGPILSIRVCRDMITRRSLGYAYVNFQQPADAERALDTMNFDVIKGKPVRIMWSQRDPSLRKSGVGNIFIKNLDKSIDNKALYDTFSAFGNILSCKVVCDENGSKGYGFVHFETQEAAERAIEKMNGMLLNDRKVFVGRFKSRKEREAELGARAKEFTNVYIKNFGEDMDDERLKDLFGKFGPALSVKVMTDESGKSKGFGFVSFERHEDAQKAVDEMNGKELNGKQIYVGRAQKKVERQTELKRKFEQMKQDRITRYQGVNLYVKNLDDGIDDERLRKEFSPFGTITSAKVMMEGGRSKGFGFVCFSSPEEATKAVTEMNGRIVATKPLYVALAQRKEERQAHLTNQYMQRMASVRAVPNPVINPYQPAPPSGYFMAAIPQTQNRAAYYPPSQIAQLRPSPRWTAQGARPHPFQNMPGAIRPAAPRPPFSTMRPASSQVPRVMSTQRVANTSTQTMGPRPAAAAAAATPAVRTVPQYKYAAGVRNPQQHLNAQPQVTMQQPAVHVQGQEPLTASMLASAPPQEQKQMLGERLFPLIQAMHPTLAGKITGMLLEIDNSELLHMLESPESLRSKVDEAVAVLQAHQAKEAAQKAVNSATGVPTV
Chain of Large T antigen (P03070 whole entry): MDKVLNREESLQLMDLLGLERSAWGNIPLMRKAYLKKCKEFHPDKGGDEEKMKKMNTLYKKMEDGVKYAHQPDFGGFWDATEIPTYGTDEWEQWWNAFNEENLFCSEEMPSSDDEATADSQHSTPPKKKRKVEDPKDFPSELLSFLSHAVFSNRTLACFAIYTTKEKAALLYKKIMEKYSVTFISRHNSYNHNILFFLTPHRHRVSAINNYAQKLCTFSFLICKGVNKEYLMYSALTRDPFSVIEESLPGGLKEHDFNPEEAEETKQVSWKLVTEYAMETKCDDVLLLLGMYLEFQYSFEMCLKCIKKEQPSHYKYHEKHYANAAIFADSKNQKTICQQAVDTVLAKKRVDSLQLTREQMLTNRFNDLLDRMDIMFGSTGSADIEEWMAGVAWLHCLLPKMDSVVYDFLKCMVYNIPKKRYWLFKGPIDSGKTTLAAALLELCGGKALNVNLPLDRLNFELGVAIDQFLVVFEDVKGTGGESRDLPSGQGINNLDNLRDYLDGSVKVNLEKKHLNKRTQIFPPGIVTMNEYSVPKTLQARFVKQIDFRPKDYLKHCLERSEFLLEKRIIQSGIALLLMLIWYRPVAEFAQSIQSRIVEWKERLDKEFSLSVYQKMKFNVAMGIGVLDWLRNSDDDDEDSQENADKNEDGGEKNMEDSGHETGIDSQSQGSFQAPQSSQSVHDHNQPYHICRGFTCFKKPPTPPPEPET
Chain of Luciferin 4-monooxygenase (P08659 whole entry): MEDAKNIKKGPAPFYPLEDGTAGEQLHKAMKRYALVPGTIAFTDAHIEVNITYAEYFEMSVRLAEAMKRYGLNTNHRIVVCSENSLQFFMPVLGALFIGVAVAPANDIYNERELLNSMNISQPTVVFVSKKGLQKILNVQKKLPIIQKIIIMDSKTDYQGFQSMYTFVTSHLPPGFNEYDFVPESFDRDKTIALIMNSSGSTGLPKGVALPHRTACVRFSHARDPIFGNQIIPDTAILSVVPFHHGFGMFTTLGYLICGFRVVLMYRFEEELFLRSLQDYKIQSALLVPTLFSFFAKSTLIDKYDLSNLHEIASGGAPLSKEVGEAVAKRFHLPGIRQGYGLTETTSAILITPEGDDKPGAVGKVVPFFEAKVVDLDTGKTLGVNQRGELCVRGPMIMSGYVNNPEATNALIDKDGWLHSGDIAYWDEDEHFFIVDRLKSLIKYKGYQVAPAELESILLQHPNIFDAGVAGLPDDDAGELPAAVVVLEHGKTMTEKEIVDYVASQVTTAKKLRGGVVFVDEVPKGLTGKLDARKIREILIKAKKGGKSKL

Compound: CC(C)CCC(C(=O)O)C(C)CC(=O)NNC(=O)c1ccco1 (stereo not given)
- AC50 [1]: > 70 µM (inactive)
- AC50 [2]: 19.9 µM (active)

Compound: O=C1CC(Nc2ccccc2)C(=O)N1Cc1ccccc1 (stereo not given)
- EC50 (cells [3]): > 350 µM (not active)
- EC50 (cells [4]): > 350 µM (not active)

Compound: Oc1nc(CN2CC=C(c3ccccc3)CC2)nc2cc(C(F)(F)F)ccc12
- EC50 [5]: > 112 µM (not active)
- EC50 [6]: > 112 µM (not active)
- AC50 (HEK293): > 350 µM (inactive)

Compound: C=CCn1c(N)c(C(=O)OCC)sc1=S
- IC50 [7]: > 66 µM (inactive)
- IC50 [8]: > 66 µM (inactive)

Compound: Cc1cc(O)c(C(C)C)cc1N=C1CSC(=O)N1
- EC50 [9]: 38.9 µM (active)
- EC50 [10]: 34.6 µM (active)

Compound: Cc1c(NC(=O)CSc2ccc(Cl)cc2)cccc1-c1nc2cc(Cl)ccc2o1
- EC50 [9]: > 300 µM (not active)
- EC50 [10]: > 300 µM (not active)

Compound: CCC(CO)n1c(SCc2cc(=O)oc3cc(C)ccc23)nc2ccccc2c1=O (stereo not given)
- IC50 (Coagulation factor XII): > 50 µM (inactive)

Compound: O=C1NC(=O)N(Cc2ccccc2)C(=O)/C1=C/Nc1ccc(CN2CCOCC2)cc1
- EC50 [9]: > 300 µM (not active)
- EC50 [10]: > 300 µM (not active)

Compound: Cc1ccc(OCC(=O)Nc2nnn(C)n2)c(C)c1
- IC50 (Coagulation factor XII): > 50 µM (inactive)

Compound: CCOC(=O)c1cccc(NC(=O)CSc2nnc(-c3ccoc3C)n2CCOC)c1
- IC50 (Coagulation factor XII): > 50 µM (inactive)

Compound: CCOC(=O)c1[nH]c2ccccc2c1N=C(S)Nc1cccc(C)c1C
- IC50 (Large T antigen): 35.1 µM (active)
- IC50 [7]: > 66 µM (inactive)
- IC50 [8]: > 66 µM (inactive)
- IC50 [11]: 95.4 µM (active)

Compound: COC(C[C@H](O)C[C@@H](O)[C@H](C)OCc1ccccc1)OC
- IC50 (Coagulation factor XII): > 50 µM (inactive)

Compound: C#CCOCCOCCOCCNc1nc(N2CCN(C(=O)[C@H](CCCN=C(N)N)n3cc(C(N)[C@@H](C)CC)nn3)CC2)nc(N2CCN(C(=O)[C@H](CC(N)=O)n3cc([C@@H](N)CC(N)=O)nn3)CC2)n1 (stereo not given in full)
- IC50 [12]: > 20 µM (inactive)

Compound: O=C(CCC(=O)N/N=C/c1ccc(Br)s1)NCc1ccccc1
- IC50 (Coagulation factor XII): > 50 µM (inactive)

Compound: Cc1ccc(C(=O)Nc2cccc(C(=O)N/N=C/c3ccccc3F)c2)cc1
- AC50 (HEK293): 7.43 µM (active)

Compound: COc1cc(-c2cc(=O)c3ccc(O)cc3o2)cc(OC)c1OC
- IC50 [7]: > 66 µM (inactive)
- IC50 [8]: 33.7 µM (inactive)

Compound: Nc1ncnc2c1ncn2CCN1CCOCC1
- EC50 (cells [3]): > 350 µM (not active)
- EC50 (cells [4]): > 350 µM (not active)
